Assay results from patent publication US20120115903A1, “Substituted Heteroaromatic Carboxamide and Urea Compounds as Vanilloid Receptor Ligands” (Gruenenthal GmbH, priority 2010, published 2012).

How the values were obtained:
[1] = target: T1, vanilloid receptor 1 (VR1/TRPV1 receptor) (Mus musculus, UniProt Q704Y3); assay: FLIPR Ca2+ influx assay on vanilloid receptor 1, capsaicin stimulus (mouse); type: cell-based; conditions: Cap = capsaicin, Ki from IC50 by Cheng-Prusoff
T1 construct: expressed in transfected cells; host or cells: CHO K1 cells (inferred: method II; method I is described for rat DRG neurons only)
T1 sequence (Q704Y3 whole entry): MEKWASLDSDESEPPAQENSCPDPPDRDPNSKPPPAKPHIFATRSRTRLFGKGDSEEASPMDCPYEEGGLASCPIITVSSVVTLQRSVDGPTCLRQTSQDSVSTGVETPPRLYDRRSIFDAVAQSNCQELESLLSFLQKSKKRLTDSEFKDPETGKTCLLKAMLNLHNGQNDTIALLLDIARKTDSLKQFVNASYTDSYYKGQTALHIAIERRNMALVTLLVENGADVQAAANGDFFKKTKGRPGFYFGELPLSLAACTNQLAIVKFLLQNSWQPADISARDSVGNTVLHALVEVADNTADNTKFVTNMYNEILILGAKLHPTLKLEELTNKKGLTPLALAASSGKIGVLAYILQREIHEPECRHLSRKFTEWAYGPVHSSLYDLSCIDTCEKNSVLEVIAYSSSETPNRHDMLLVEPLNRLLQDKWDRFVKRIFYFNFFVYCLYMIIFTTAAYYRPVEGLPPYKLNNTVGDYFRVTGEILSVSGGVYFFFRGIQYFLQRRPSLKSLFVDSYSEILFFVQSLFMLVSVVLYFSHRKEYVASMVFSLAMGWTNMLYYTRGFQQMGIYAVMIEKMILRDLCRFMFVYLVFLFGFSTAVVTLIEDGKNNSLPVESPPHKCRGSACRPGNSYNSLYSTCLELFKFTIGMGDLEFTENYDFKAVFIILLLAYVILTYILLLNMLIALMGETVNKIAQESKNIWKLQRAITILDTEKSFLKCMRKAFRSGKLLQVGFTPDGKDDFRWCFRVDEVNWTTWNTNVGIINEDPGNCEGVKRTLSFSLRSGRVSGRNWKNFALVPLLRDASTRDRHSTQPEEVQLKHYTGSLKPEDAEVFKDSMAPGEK
Excerpt: The agonistic or antagonistic effect of the substances to be tested on the vanilloid receptor 1 (VR1) can also be determined using the following assay. In this assay, the influx of Ca^2+ through the channel is quantified with the aid of a Ca^2+-sensitive dye (type Fluo-4, Molecular Probes Europe BV, Leiden, the Netherlands) in a fluorescent imaging plate reader (FLIPR, Molecular Devices, Sunnyvale, USA).
Chinese hamster ovary cells (CHO K1 cells, European Collection of Cell Cultures (ECACC) United Kingdom) are stably transfected with the VR1 gene. […] The Ca^2+-dependent fluorescence is measured before and after the addition of the substances to be tested (λex wavelength=488 nm, λem=540 nm). Quantification is carried out by measuring the highest fluorescence intensity (FC, fluorescence counts) over time.
The FLIPR protocol consists of 2 substance additions. […] After 5 minutes' incubation, 100 nM of capsaicin are applied and the Ca^2+ influx is also determined. […]
Starting from the percentage displacement caused by different concentrations of the compounds to be tested of general formula I, IC50 inhibitory concentrations which cause a 50-percent displacement of capsaicin were calculated. […]
The affinity of the compounds according to the invention for the vanilloid receptor 1 (VR1/TRPV1 receptor) was determined as described hereinbefore (pharmacological methods I and II respectively). […]

[2] = target: T2, vanilloid receptor 1 (VR1/TRPV1 receptor) (Homo sapiens, UniProt Q8NER1); assay: FLIPR Ca2+ influx assay with CHO K1 cells transfected with the human VR1 gene, capsaicin stimulus; type: cell-based; conditions: Cap = capsaicin (100 nM), Ki from IC50 by Cheng-Prusoff, read-out: Ki (human being) [nM] Cap
T2 construct: expressed in transfected cells; host or cells: CHO K1 cells (ECACC), stably transfected
T2 sequence (Q8NER1 whole entry): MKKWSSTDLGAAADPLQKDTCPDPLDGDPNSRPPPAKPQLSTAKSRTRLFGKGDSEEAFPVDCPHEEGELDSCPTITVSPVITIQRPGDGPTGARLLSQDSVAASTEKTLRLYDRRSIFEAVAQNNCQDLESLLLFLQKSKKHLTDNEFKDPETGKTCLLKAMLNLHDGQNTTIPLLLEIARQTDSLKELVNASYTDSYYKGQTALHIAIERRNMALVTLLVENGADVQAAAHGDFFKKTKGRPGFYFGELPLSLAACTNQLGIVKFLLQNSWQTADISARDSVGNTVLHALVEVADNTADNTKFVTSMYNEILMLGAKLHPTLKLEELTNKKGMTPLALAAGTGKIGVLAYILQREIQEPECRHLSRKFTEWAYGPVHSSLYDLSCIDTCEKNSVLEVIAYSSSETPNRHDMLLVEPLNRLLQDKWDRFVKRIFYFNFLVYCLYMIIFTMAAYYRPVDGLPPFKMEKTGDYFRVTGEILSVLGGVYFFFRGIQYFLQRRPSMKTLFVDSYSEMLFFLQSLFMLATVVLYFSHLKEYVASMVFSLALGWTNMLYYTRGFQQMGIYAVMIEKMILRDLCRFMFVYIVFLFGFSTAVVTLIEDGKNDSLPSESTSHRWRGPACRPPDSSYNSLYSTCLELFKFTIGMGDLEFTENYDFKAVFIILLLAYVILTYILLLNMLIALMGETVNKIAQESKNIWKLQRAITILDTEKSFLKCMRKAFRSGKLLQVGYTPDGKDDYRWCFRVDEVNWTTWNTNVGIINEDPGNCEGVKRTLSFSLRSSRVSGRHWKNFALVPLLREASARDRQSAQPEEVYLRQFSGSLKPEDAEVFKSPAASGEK
Procedure: Furthermore, preference may be given to compounds according to the invention of general formula (I) that cause a 50 percent displacement of capsaicin, which is present at a concentration of 100 nM, in a FLIPR assay with CHO K1 cells which were transfected with the human VR1 gene at a concentration of less than 2,000 nM, preferably less than 1,000 nM, particularly preferably less than 300 nM, most particularly preferably less than 100 nM, even more preferably less than 75 nM, additionally preferably less than 50 nM, most preferably less than 10 nM. In the process, the Ca^2+ influx is quantified in the FLIPR assay with the aid of a Ca^2+-sensitive dye (type Fluo-4, Molecular Probes Europe BV, Leiden, the Netherlands) in a fluorescent imaging plate reader (FLIPR, Molecular Devices, Sunnyvale, USA), as described hereinafter. The agonistic or antagonistic effect of the substances to be tested on the vanilloid receptor 1 (VR1) can also be determined using the following assay. In this assay, the influx of Ca^2+ through the channel is quantified with the aid of a Ca^2+-sensitive dye (type Fluo-4, Molecular Probes Europe BV, Leiden, the Netherlands) in a fluorescent imaging plate reader (FLIPR, Molecular Devices, Sunnyvale, USA). Chinese hamster ovary cells (CHO K1 cells, European Collection of Cell Cultures (ECACC) United Kingdom) are stably transfected with the VR1 gene. For functional testing, these cells are plated out on poly-D-lysine-coated black 96-well plates having a clear base (BD Biosciences, Heidelberg, Germany) at a density of 25,000 cells/well. The cells are incubated overnight at 37° C. and 5% CO2 in a culture medium (Ham's F12 nutrient mixture, 10% by volume of FCS (foetal calf serum), 18 μg/ml of L-proline). The next day the cells are incubated with Fluo-4 (Fluo-4 2 μM, 0.01% by volume of Pluronic F127, Molecular Probes in HBSS (Hank's buffered saline solution), Gibco Invitrogen GmbH, Karlsruhe, Germany) for 30 minutes at 37° C. Subsequently, the plates are washed three times with HBSS buffer and after further incubation for 15 minutes at RT used for Ca^2+ measurement in a FLIPR assay. The Ca^2+-dependent fluorescence is measured before and after the addition of the substances to be tested (λex wavelength=488 nm, λem=540 nm). Quantification is carried out by measuring the highest fluorescence intensity (FC, fluorescence counts) over time. The FLIPR protocol consists of 2 substance additions. First the compounds to be tested (10 μM) are pipetted onto the cells and the Ca^2+ influx is compared with the control (capsaicin 10 μM) (% activation based on the Ca^2+ signal after the addition of 10 μM of capsaicin). After 5 minutes' incubation, 100 nM of capsaicin are applied and the Ca^2+ influx is also determined. Desensitising agonists and antagonists led to suppression of the Ca^2+ influx. The % inhibition is calculated compared to the maximum achievable inhibition with 10 μM of capsaicin. Starting from the percentage displacement caused by different concentrations of the compounds to be tested of general formula I, IC50 inhibitory concentrations which cause a 50-percent displacement of capsaicin were calculated. K, values for the test substances were obtained by conversion by means of the Cheng-Prusoff equation (Cheng, Prusoff; Biochem. Pharmacol. 22, 3099-3108, 1973). The affinity of the compounds according to the invention for the vanilloid receptor 1 (VR1/TRPV1 receptor) was determined as described hereinbefore (pharmacological methods I and II respectively). The compounds according to the invention of the above-indicated formula (I) display outstanding affinity to the VR1/TRPV1 receptor (Table 1.).

CC(C(=O)NCc1cc(C(F)(F)F)nn1-c1cccc(Cl)c1)c1cn(C)c2ccc(O)cc12 (centres unmarked) [Example 10, N-((1-(3-chlorophenyl)-3-(trifluoromethyl)-1H-pyrazol-5-yl)methyl)-2-(5-hydroxy-1-methyl-1H-indol-3-yl)propanamide]
Ki [1]: 4.8 nM
Ki [2]: 0.4 nM
